# In paper PMC8430629, “Anti-Cancer Effects of Cyclic Peptide ALOS4 in a Human Melanoma Mouse Model” (International Journal of Molecular Sciences, 2021):
# Where a SMILES comes first, the peptide text is derived from it.
# Experiments:
# [1] = Formulation stability, saline vs saline with 0.1% Tween-80; assay type: physicochemical; conditions: 0.5-5000 pmol/µL, 60 min, room temperature (25 °C), polypropylene tubes, LC-MS, n = 3
# Protocol: (§1) Adhesiveness to inert materials was measured for ALOS4 0.9% NaCl(aq) solution in concentrations of 1, 3 10, 30, or 100 µM and incubated in standard laboratory polypropylene microtubes for 60 min at room temperature. Solutions were transferred to either polypropylene LC vials or borosilicate glass LC vials. Optimal formulation stability of ALOS4 was analyzed in either saline solution (0.9% NaCl) or saline solution containing 0.1% tween 80 (polysorbate; Sigma-Aldrich, Cat#P1754, Darmstadt, Germany) at concentrations of 0.5, 5, 50, 500, or 5000 pmol/µL. Solutions were incubated in standard polypropylene tubes for 60 min at room temperature. Acid/base stability was measured for ALOS4 formulated in saline at a concentration of 10 µM and incubated for 1 or 24 h at 3.4, 4.4, 5.4, 6.4, 7.4, or 9.4 pH at temperatures of 4, 25, or 37 °C. Recovery of ALOS4 following these materials assays was assessed by LC-MS.
# [2] = Acid/base and temperature stability; assay type: physicochemical; conditions: 10 µM in saline, pH 3.4, 4.4, 5.4, 6.4, 7.4, 9.4; 4, 25, 37 °C; 1 or 24 h; polypropylene tubes, LC-MS, n = 3
# Protocol: as §1
# ICR mice [3] = assay: Open field test; assay type: in vivo
# Protocol: To evaluate the effect of ALOS4 on mouse locomotor activity, we used the open field (OF) behavioral test. This assay consists of an arena (30 × 40 cm) with no grid markings and uses an infrared imaging system. […] Each mouse was placed individually in the center of the arena and evaluated for 6 min. Arena center dwell time versus arena border dwell time, as well as total traveled distance, were recorded.
# ICR mice [4] = assay: Complete blood count after single IV dose; assay type: in vivo; conditions: for RBC / HGB / MCH / MCHC / Hematocrit / MCV / Platelets / WBC: mean, n = 5; for RBC: normal range 7.31–10.03; for HGB: normal range 13.1–16.2; for MCH: normal range 15–18; for MCHC: normal range 33.7–36.4; for Hematocrit: normal range 36.8–48.7; for MCV: normal range 46.0–50.9; for Platelets: normal range 674–1675; for WBC: blood 24 h post-injection, normal range 6.5–24.5
# Protocol: (§2) ICR mice were treated with single IV injections of ALOS4 (30, 90, or 180 mg/kg) and blood samples were collected at 24 h post-injection to EDTA and serum tubes. Complete blood cell count (CBC) and blood chemistry analyses were performed for saline and ALOS4 treatment groups at a certified animal laboratory (Herzliya Medical Center, Herzliya, Israel).
# ICR mice [5] = assay: Plasma biochemistry after single IV dose; assay type: in vivo; conditions: 24 h, mean, n = 5; for Total Bilirubin: normal range 0.16–0.32; for Creatinine: normal range 0.2–0.4; for Globulin: normal range 1.4–2.0; for Alb: normal range 3.3–4.0; for TP: normal range 4.7–5.8; for Phosphorus: normal range 6.4–11.3; for Calcium: normal range 9.8–10.8; for Urea: normal range 39–62; for Cholesterol: normal range 56–133; for Glucose: normal range 169–282
# Protocol: as §2
# ICR mice [6] = assay: Repeated IV dose toxicity assessment in cancer-free ICR mice
# Protocol: Acute single or repeated doses of ALOS4 at 10, 30, 90, 180, or 360 mg/kg were administered intravenously to uninoculated (nominally cancer-free) ICR mice. Body weight, rectal temperature, and survival were evaluated for 14 days following injections. Mice were also evaluated for locomotory and anxiety-like behaviors (open-field and EPM) on treatment day 14.
structure (smiles),measurement,setting,value
"CC(C)C[C@@H]1NC(=O)[C@H](CO)NC(=O)CNC(=O)[C@H](C)NC(=O)[C@H](CO)NC(=O)[C@H](CO)NC(=O)[C@@H](N)CSSC[C@@H](C(=O)O)NC(=O)[C@H](Cc2ccccc2)NC1=O [ALOS4, H-cycl(Cys-Ser-Ser-Ala-Gly-Ser-Leu-Phe-Cys)-OH] (HELM PEPTIDE1{C.S.S.A.G.S.L.F.C}$PEPTIDE1,PEPTIDE1,1:R3-9:R3$$$V2.0)",reduction of peptide stability in saline containing 0.1% Tween-80 vs 0.9% NaCl only,[1],1.2 fold
same,stability (recoverability),[2],90–100%
same,"total traveled distance, open field","ICR mice [3]; IV acute single dose 180 mg/kg, n = 5, Bonferroni p = 0.0329",only an exception for total traveled distance
same,"locomotor activity, open field","ICR mice [3]; IV acute single dose 30, 90, 180 mg/kg, n = 5, central arena dwell time",did not affect locomotor activity in general
same,decrease in WBC count,"ICR mice [4]; ICR mice, single IV 180 mg/kg, 24 h",40%
same,RBC,"ICR mice [4]; single IV 30 mg/kg, 24 h",9.16 ± 0.3 10^6/µL
same,HGB,"ICR mice [4]; single IV 30 mg/kg, 24 h",14.3 ± 0.6 g/dL
same,MCH,"ICR mice [4]; single IV 30 mg/kg, 24 h",15.6 ± 0.2 pg
same,MCHC,"ICR mice [4]; single IV 30 mg/kg, 24 h",32.54 ± 0.23 g/dL
same,Hematocrit,"ICR mice [4]; single IV 30 mg/kg, 24 h",43.96 ± 1.9%
same,MCV,"ICR mice [4]; single IV 30 mg/kg, 24 h",47.96 ± 0.6 fL
same,Platelets,"ICR mice [4]; single IV 30 mg/kg, 24 h",582.4 ± 132 10^3/µL
same,WBC,ICR mice [4]; single IV 30 mg/kg,4.51 ± 1.3 10^3/µL
same,RBC,"ICR mice [4]; single IV 90 mg/kg, 24 h",9.78 ± 0.3 10^6/µL
same,HGB,"ICR mice [4]; single IV 90 mg/kg, 24 h",15.42 ± 0.5 g/dL
same,MCH,"ICR mice [4]; single IV 90 mg/kg, 24 h",15.76 ± 0.15 pg
same,MCHC,"ICR mice [4]; single IV 90 mg/kg, 24 h",32.2 ± 0.4 g/dL
same,Hematocrit,"ICR mice [4]; single IV 90 mg/kg, 24 h",47.88 ± 1.1%
same,MCV,"ICR mice [4]; single IV 90 mg/kg, 24 h",48.96 ± 0.24 fL
same,Platelets,"ICR mice [4]; single IV 90 mg/kg, 24 h",770.2 ± 189 10^3/µL
same,WBC,ICR mice [4]; single IV 90 mg/kg,6.07 ± 1.2 10^3/µL
same,RBC,"ICR mice [4]; single IV 180 mg/kg, 24 h",8.02 ± 0.6 10^6/µL
same,HGB,"ICR mice [4]; single IV 180 mg/kg, 24 h",13.2 ± 1.04 g/dL
same,MCH,"ICR mice [4]; single IV 180 mg/kg, 24 h",16.42 ± 0.2 pg
same,MCHC,"ICR mice [4]; single IV 180 mg/kg, 24 h",32.88 ± 0.4 g/dL
same,Hematocrit,"ICR mice [4]; single IV 180 mg/kg, 24 h",40.12 ± 3.15%
same,MCV,"ICR mice [4]; single IV 180 mg/kg, 24 h",49.96 ± 0.32 fL
same,Platelets,"ICR mice [4]; single IV 180 mg/kg, 24 h",661.8 ± 160.5 10^3/µL
same,WBC,ICR mice [4]; single IV 180 mg/kg,3.2 ± 0.06 10^3/µL
same,Total Bilirubin,ICR mice [5]; single IV 30 mg/kg,0.11 ± 0.02 mg/dL
same,Creatinine,ICR mice [5]; single IV 30 mg/kg,0.26 ± 0.014 mg/dL
same,Globulin,ICR mice [5]; single IV 30 mg/kg,1.87 ± 0.07 g/dL
same,Alb,ICR mice [5]; single IV 30 mg/kg,4.3 ± 0.14 g/dL
same,TP,ICR mice [5]; single IV 30 mg/kg,6.17 ± 0.18 g/dL
same,Phosphorus,ICR mice [5]; single IV 30 mg/kg,8.6 ± 0.56 mg/dL
same,Calcium,ICR mice [5]; single IV 30 mg/kg,10.29 ± 0.11 mg/dL
same,Urea,ICR mice [5]; single IV 30 mg/kg,46.08 ± 1.7 mg/dL
same,Cholesterol,ICR mice [5]; single IV 30 mg/kg,108.2 ± 9.5 mg/dL
same,Glucose,ICR mice [5]; single IV 30 mg/kg,169.8 ± 6.9 mg/dL
same,Total Bilirubin,ICR mice [5]; single IV 90 mg/kg,0.14 ± 0.02 mg/dL
same,Creatinine,ICR mice [5]; single IV 90 mg/kg,0.25 ± 0.06 mg/dL
same,Globulin,ICR mice [5]; single IV 90 mg/kg,2.02 ± 0.07 g/dL
same,Alb,ICR mice [5]; single IV 90 mg/kg,4.3 ± 0.06 g/dL
same,TP,ICR mice [5]; single IV 90 mg/kg,6.32 ± 0.13 g/dL
same,Phosphorus,ICR mice [5]; single IV 90 mg/kg,9.53 ± 0.4 mg/dL
same,Calcium,ICR mice [5]; single IV 90 mg/kg,10.38 ± 0.29 mg/dL
same,Urea,ICR mice [5]; single IV 90 mg/kg,48.23 ± 3.2 mg/dL
same,Cholesterol,ICR mice [5]; single IV 90 mg/kg,142.25 ± 13.7 mg/dL
same,Glucose,ICR mice [5]; single IV 90 mg/kg,170.75 ± 10.7 mg/dL
same,Total Bilirubin,ICR mice [5]; single IV 180 mg/kg,0.11 ± 0.03 mg/dL
same,Creatinine,ICR mice [5]; single IV 180 mg/kg,0.27 ± 0.02 mg/dL
same,Globulin,ICR mice [5]; single IV 180 mg/kg,1.59 ± 0.4 g/dL
same,Alb,ICR mice [5]; single IV 180 mg/kg,4.36 ± 0.024 g/dL
same,TP,ICR mice [5]; single IV 180 mg/kg,6.28 ± 0.09 g/dL
same,Phosphorus,ICR mice [5]; single IV 180 mg/kg,8.44 ± 0.75 mg/dL
same,Calcium,ICR mice [5]; single IV 180 mg/kg,10.42 ± 0.1 mg/dL
same,Urea,ICR mice [5]; single IV 180 mg/kg,46.02 ± 3.9 mg/dL
same,Cholesterol,ICR mice [5]; single IV 180 mg/kg,141.8 ± 9.1 mg/dL
same,Glucose,ICR mice [5]; single IV 180 mg/kg,183.2 ± 14.3 mg/dL
same,weight-gain,"ICR mice [6]; IV every other day over 21 days (ten doses), 10, 30, 90, 180, 360 mg/kg, n = 5, vs control",no alterations in weight-gain
same,body temperature,"ICR mice [6]; IV every other day over 21 days, 10-360 mg/kg, rectal, 30 min after injection, n = 5",no alterations
same,necropsy assessment for organ damage,"ICR mice [6]; histology of liver, spleen, kidney, lungs, brain, repeated IV 10-360 mg/kg",did not reveal any overt signs of tissue damage or inflammation
same,21-day survival,"ICR mice [6]; maximum tested repeated IV dose 360 mg/kg, n = 5",100%
same,clinical signs,ICR mice [6]; repeated IV 10-360 mg/kg,No adverse overt clinical signs were observed
